Test results published in US20210263015A1, “MEASUREMENT METHOD” (priority 2018, published 2021).

Legend:
Assay type in all cases: cell-based
[1] = test system: Cerebral cortex neurons derived from human iPS cells; assay: Neural activity propagation in neural network of nerve cell device on MEA (4-AP)
Text: FIG. 3 is a diagram showing the results of measuring by MEA (16 channels) the effect of 4-aminopyridines (4-AP) on the propagation speed of action potential in a neural network included in a nerve cell device. (A) is a raster plot diagram of the electrical signal measured by MEA after the addition of DMSO (upper figure) or 4-AP (lower figure). (B) is a diagram showing the results of measuring the time taken by the action potential in a neural network from the channel number 1 of the MEA to the channel number 16 (the channel at the diagonal of the MEA) after the addition of 4-AP (0.3, 1, and 3 μM) or DMSO and before the addition of the drug. The results are relative values in which the action potential arrival time in case of before the addition of the drug is taken as 100, and indicated by the average ±standard error (n=4). The decrease in the relative value of arrival time of action potential indicates an increase in the propagation speed of the action potential.
An oriented PS fiber sheet obtained by mounting a stainless steel circular frame produced in Example 1 was hydrophilized by plasma treatment using a desktop plasma treatment apparatus (STREX Inc.), and then coated with poly-D-lysine and laminin. […] The nerve action potential and the propagation direction of the neural activity were measured. […]

[2] = test system: spinal motion neuron derived from human iPS cells
[3] = test system: Nerve cells derived from human iPS cells (XCL-1 neuron); assay: Neural activity propagation in neural network of nerve cell device on MEA (picrotoxin), XCL-1 neurons; details: picrotoxin 0.1-10 μm; XCL-1 neurons seeded at 3×10^5 or 9×10^5 cells/cm^2; relative to vehicle (DMSO)
Experimental: (§1) FIG. 4 is a diagram showing the results obtained by measuring the effect of picrotoxin by changing its concentration on the propagation speed of action potential in a neural network included in a nerve cell device having a different cell seeding density. As nerve cells, XCL-1 neurons (Xcell Science, US) were seeded at density of 3×10^5 cells/cm^2 (A) and 9×10^5 cells/cm^2 (B) or cerebral cortex neurons derived from human iPS cells (Axol Bioscience, UK) were seeded at density of 8x10^5 cells/cm^2 (C) and 24×10^5 cells/cm^2 (D) and cultured for 6 weeks. The concentrations of picrotoxin were 0.1, 0.3, 1, 3 and 10 μM. The results are relative values in which the propagation speed of action potential in case of the addition of vehicle (DMSO, a solvent in the drug) is taken as 100, and indicated by the average ±standard error (A, n=3; B, n=6; C, n=2; D, n=4).
(§2) An oriented PS fiber sheet obtained by mounting a stainless steel circular frame produced in Example 1 was hydrophilized by plasma treatment using a desktop plasma treatment apparatus (STREX Inc.), and then coated with poly-D-lysine and laminin. […] The nerve action potential was determined.

[4] = test system: Cerebral cortex neurons derived from human iPS cells; assay: Neural activity propagation in neural network of nerve cell device on MEA (picrotoxin), cerebral cortex neurons; details: picrotoxin 0.1-10 μm; cerebral cortex neurons seeded at 8×10^5 or 24×10^5 cells/cm^2; relative to vehicle (DMSO)
Experimental: as §1, §2

In the case of `Nc1ccncc1` [4-AP, 4-aminopyridin], the “propagation speed of neural activity” value ([1]; 4-AP 3 μM, channel 1 to channel 16 of MEA, DMSO 0.14 m/sec) is reported as 0.39 m/sec and the “propagation speed of neural activity, concentration dependence (relative action potential arrival time)” value ([1]; 4-AP 0.3, 1 and 3 μM, n=4) is reported as “increase dependently with the concentration of 4-AP”.

`NC1=N[C@H](O)[C@H]2[C@H]3O[C@]4(O)O[C@@H]([C@@H](O)[C@@]2(N1)[C@@H]4O)[C@]3(O)CO` [TTX, tetrodotoxin] was tested, and the “peak time of action potential” value [2] was “delayed”.

With picrotoxin the “propagation speed of action potential, concentration dependence” value [3] was “an increase in propagation speed of a concentration-dependent action potential was observed” and the “propagation speed of action potential, concentration dependence” value [4] was “an increase in propagation speed of a concentration-dependent action potential was observed”.
